Data: patent US11185539B2 (priority 2017, dated 2021)

Assays:
[1] = tested on: cardiomyocyte cell line HL-1; assay: Proliferation of cardiomyocyte cell line HL-1, BrdU-ELISA; assay type: cell-based; details: same concentrations as on HCFs, 24 h, DMSO control
Experimental: HCFs and HL-1 cells were treated with Bufalin, Gitoxigenin, Lycorine and Anisomycin for 24 h with the same concentrations as indicated in Example 1 and proliferation of HCFs and cardiomyocyte cell line HL-1 cells was measured by BrdU-ELISA, DMSO refers as a control (see FIG. 2B, 3B, 4B, 5B). The cell proliferation ELISA is a colorimetric alternative to quantitate cell proliferation based on the measurement of BrdU incorporation during DNA synthesis in proliferating cells. After its incorporation into DNA, BrdU is detected by immunoassay by using antibodies being highly specific for BrdU. First, HCFs and/or HL-1 cells are cultured together with various dilutions of test substances (e.g. mitogens, growth factors, cytokines and test compounds such as Bufalin, Gitoxigenin, Lycorine and Anisomycin as mentioned above etc.) in a 96-well in a final volume of 100 μl/well in a humified atmosphere of 37° C. Afterwards, 10 μl/well BrdU labeling solution is added to the cells being cultured in 100 μl/well (final concentration: 10 μM BrdU). Then, cells were re-incubated for additional 2 to 24 h at 37° C. Next, labeling solution is removed and 200 μl/well FixDenat is added to the cells and incubated for 30 min at 15 to 25° C. Then, 100 μl/well anti-BrdU-POD working solution is added and incubated for approximately 90 min, after FixDenat is removed. Next, antibody conjugate is removed and wells are washed with 200 μl-300 μl/well Washing solution (PBS, 1×). After the washing solution is removed, 100 μl/well Substrate solution is added and it is incubated again until color development is sufficient for photometric detection. Further, HCFs were treated with said compounds (Lycorine: 5 μM, Bufalin: 1 μM, Gitoxigenin: 1 μM and Anisomycin: 1 μM) for 24 h as indicated again and subjected to FACS analysis after Annexin-7AAD-staining (see FIG. 2C, 3C, 4C, 5C). After the treatment with said compounds, annexin-7AAD-staining starts with inducing apoptosis in HCFs by a desired method, known to the person skilled in the art, a negative control (w/o induction and staining) and a positive control (f. ex. 500 μM H2O2 or 3 μM Staurosporin) is also needed. Then, the medium with HCFs is transferred into a falcon, washed with PBS and trypsinized. Everything is centrifuged for 5 min at 300×g and then the supernatant is aspirated. The pellet is re-suspended in 200 μl Annexin Red/7AAD Working Solution (1:20, 5 μl Annexin Red/7AAD+195 μl 1× Assay Buffer) and transferred into an Easy Cap Eppendorf tube. After incubation of 15 min at 37° C., it is centrifuged at room temperature (RT) for 5 min at 300×g. […] Samples are now ready for acquisition on a flow cytometer (blue and red laser).

[2] = tested on: C57BL/6 mice with angiotensin II-induced diastolic heart failure; assay: Echocardiography in murine model of angiotensin II-induced cardiac fibrotic disease (two weeks); assay type: in vivo; details: i.p. every other day, Bufalin 0.5, Lycorine 4.5, Anisomycin 10, Gitoxigenin 0.01 mg/kg, day 14
Experimental: Diastolic heart failure (HF) was induced in C57BL/6 mice via implantation of angiotensin II filled minipumps. Male C57BL/6 mice 8-10 weeks old were used in the present invention being based on a C57BL/6N-background (Charles River, Germany).
For implantation of angiotension II filled minipumps, Angiotensin-II is applied by osmotic minipumps for two weeks (Alzet® [Modell 1001]). The recommended dose amounts for 1.5 or 3.0 mg/kg/per day. The minipumps are filled under sterile conditions with Angiotensin-II or with isotonic saline solution functioning as a control substance. Implantation takes place under intraperitoneal injection anaesthesia. […] Mice are then fixed on a pre-heated operating table and are provided with Bepanthen eye salve against drying out of the conjunctives. The operating field is located in the right caudal third of the back. It is shaved and desinfected with Braunol, afterwards it is coated with a 0.5% Lidocain-solution. After a period of one hour implantation can be started. The skin is cut through vertical to the back line, preferably the length is one centimeter. A pocket from the cutting line to cranial is subcutaneously formed. Herein, the minipumps are injected. Afterwards, the skin is then closed with a 5-0 Prolene string with interrupted sutures. Then, the closed wound is coated again with Braunol. For preventing hypothermia mice wake up in their cages, which are placed up to one-third on a terrarium-warming mat with regulated temperatures of 37°. Surgery amounts for 5 minutes/per animal.
Next, the natural compounds (Bufalin, Gitoxigenin, Lycorine, and Anisomycin) were injected intraperitoneally every other day during two consecutive weeks starting two days after the operation (see FIG. 6). DMSO was also injected into C57BL/6 mice with induced cardiac remodeling as a control. Cardiac function was assessed echocardiographically and fibrosis-development via collagen staining with picosirius-red in histological sections of the hearts (Example 4).
Diastolic HF was induced in C57BL/6 mice and the natural compounds were injected as indicated in Example 3. Fourteen days after the operation, cardiac function of the mice was assessed echocardiographically (n=9-15 per group) by treating the mice with said compounds (Bufalin: 0.5 mg/kg, Lycorine 4.5 mg/kg, Anisomycin: 10 mg/kg and Gitoxigenin: 0.01 mg/kg). A decrease of the Myocardial Performance Index (MPI) as well as a reduction of the isovolumetric relaxation time (IVRT) and an increase in E to A peak ratio (E/A) (the ratio of the early (E) to late (A) ventricular filling velocities as a marker of the function of the left ventricle of the heart) indicate improvement of both global (MPI) and diastolic (IVRT and E/A) function of the heart (see FIGS. 7 and 9).

[3] = tested on: circular RNA CDR1as; assay: CDR1as expression in HCFs, qRT-PCR; assay type: cell-based, human; details: Lycorine 5 μM, others 1 μM, 24 h, vs DMSO
Experimental: Expression levels of CDR1as are increased in primary HCFs upon treatment with Bufalin, Gitoxigenin, Lycorine, Anisomycin and Geldanamycin. HCFs were incubated for 24 h with Bufalin (1 μM), Gitoxigenin (1 μM,) Lycorine (5 μM), Anisomycin (1 μM) and Geldanamycin (1 μM) and upregulation of CDR1as (normalized to 18S rRNA) by the respective compound was validated via qRT-PCR (see FIG. 22).

[4] = Plasma markers of kidney and liver damage, angiotensin II model; assay type: in vivo, mice; details: Bufalin 0.5, Gitoxigenin 0.01, Lycorine 4.5, Anisomycin 10 mg/kg i.p. every other day; day 14
Experimental: HF was induced in mice (Example 3) and Bufalin (0.5 mg/kg), Gitoxigenin (0.01 mg/kg), Lycorine (4.5 mg/kg), and Anisomycin (10 mg/kg) were injected as indicated in Example 3. Fourteen days after the operation, EDTA-plasma samples were drawn (n=2-3 per group) (see FIGS. 26 and 27).

SMILES: COc1ccc(C[C@H]2NC[C@H](O)[C@H]2OC(C)=O)cc1 [Anisomycin]
- proliferation of the cardiomyocyte cell line HL-1 [1]: no impact
- E to A peak ratio (E/A) [2]: increase
- Myocardial Performance Index (MPI) [2]: decrease
- isovolumetric relaxation time (IVRT) [2]: reduction
- expression levels of CDR1as (normalized to 18S rRNA) [3]: increase
- plasma marker of kidney and liver damage (GOT, GPT, creatinine, urea) [4]: no elevation

SMILES: C[C@]12CC[C@H](O)C[C@H]1CC[C@@H]1[C@@H]2CC[C@]2(C)[C@@H](c3ccc(=O)oc3)CC[C@]12O [Bufalin]
- proliferation of the cardiomyocyte cell line HL-1 [1]: no impact
- E to A peak ratio (E/A) [2]: increase
- Myocardial Performance Index (MPI) [2]: decrease
- isovolumetric relaxation time (IVRT) [2]: reduction
- expression levels of CDR1as (normalized to 18S rRNA) [3]: increase
- plasma marker of kidney and liver damage (GOT, GPT, creatinine, urea) [4]: no elevation

SMILES: C[C@]12CC[C@H](O)C[C@H]1CC[C@@H]1[C@@H]2CC[C@]2(C)[C@@H](C3=CC(=O)OC3)[C@@H](O)C[C@]12O [Gitoxigenin]
- proliferation of the cardiomyocyte cell line HL-1 [1]: no impact
- E to A peak ratio (E/A) [2]: increase
- Myocardial Performance Index (MPI) [2]: decrease
- isovolumetric relaxation time (IVRT) [2]: reduction
- expression levels of CDR1as (normalized to 18S rRNA) [3]: increase
- plasma marker of kidney and liver damage (GOT, GPT, creatinine, urea) [4]: no elevation

SMILES: O[C@H]1[C@H]2c3cc4c(cc3CN3CCC(=C[C@@H]1O)[C@H]23)OCO4 [Lycorine]
- proliferation of the cardiomyocyte cell line HL-1 [1]: no impact
- E to A peak ratio (E/A) [2]: increase
- Myocardial Performance Index (MPI) [2]: decrease
- isovolumetric relaxation time (IVRT) [2]: reduction
- expression levels of CDR1as (normalized to 18S rRNA) [3]: increase
- plasma marker of kidney and liver damage (GOT, GPT, creatinine, urea) [4]: no elevation
